Test results: PubChem BioAssay (NCI)
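Method: 48-hour compound exposure of cells in 96-well plates, five concentrations, linear interpolation of endpoints. Definition used: TGI = concentration required for complete inhibition of growth.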

Key:
Assay in all cases: growth of human tumour cells (NCI), 48 h
[1] = test system: KM12 colon
[2] = test system: XF 498 CNS
[3] = test system: SF-539 CNS
[4] = test system: K-562 leukemia
[5] = test system: UO-31 renal
[6] = test system: SN12C renal
[7] = test system: SK-MEL-5 melanoma
[8] = test system: RPMI-8226 leukemia
[9] = test system: UACC-62 melanoma
[10] = test system: LOX IMVI melanoma
[11] = test system: 786-0 renal
[12] = test system: M19-MEL melanoma
[13] = test system: A549 NSCLC
[14] = test system: M14 melanoma
[15] = test system: ACHN renal
[16] = test system: MOLT-4 leukemia
[17] = test system: TK-10 renal
[18] = test system: KM20L2 colon
[19] = test system: OVCAR-4 ovarian
[20] = test system: LXFL 529 NSCLC
[21] = test system: CCRF-CEM leukemia
[22] = test system: DMS 273 small cell lung
[23] = test system: HOP-62 NSCLC
[24] = test system: OVCAR-8 ovarian
[25] = test system: SW-620 colon
[26] = test system: SNB-19 CNS
[27] = test system: SF-268 CNS
[28] = test system: NCI-H522 lung
[29] = test system: RXF-631 renal
[30] = test system: SK-MEL-28 melanoma
[31] = test system: IGROV1 ovarian
[32] = test system: OVCAR-5 ovarian
[33] = test system: NCI-H460 lung
[34] = test system: U251 CNS
[35] = test system: MALME-3M melanoma
[36] = test system: HCC-2998 colon
[37] = test system: COLO 205 colon
[38] = test system: OVCAR-3 ovarian
[39] = test system: SF-295 CNS
[40] = test system: DLD-1 colon
[41] = test system: HCT-15 colon
[42] = test system: A498 renal
[43] = test system: CAKI-1 renal
[44] = test system: DMS 114 small cell lung
[45] = test system: NCI-H226 lung
[46] = test system: HL-60(TB) leukemia
[47] = test system: NCI-H23 lung
[48] = test system: SK-MEL-2 melanoma
[49] = test system: SNB-78 CNS
[50] = test system: SK-OV-3 ovarian
[51] = test system: HOP-18 NSCLC
[52] = test system: RXF 393 renal
[53] = test system: SNB-75 CNS
[54] = test system: UACC-257 melanoma
[55] = test system: HOP-92 NSCLC
[56] = test system: EKVX NSCLC
[57] = test system: HT29 colon
[58] = test system: HCT-116 colon
[59] = test system: SR leukemia

Measured: TGI

O=C1C2Cc3ccccc3CN2C(=O)N1CCN1CCCC1 (stereo not drawn)
not listed: [49] | [50] | [51] | [52] | [53] | [54] | [55] | [56] | [57] | [58] | [59]
> 100 µM: all other assays above

O=c1[nH]c(=O)n(C2OC3COC2C3O)cc1F (stereo not drawn)
not listed: [3] | [9] | [12] | [31] | [42] | [44] | [58] | [59]
> 100 µM: all other assays above

CCN(CC)C1CC(n2cc(C)c(=O)[nH]c2=O)OC1CO (stereo not drawn)
not listed: [1] | [7] | [10] | [13] | [15] | [17] | [18] | [24] | [25] | [26] | [32] | [34] | [38] | [39] | [41] | [51] | [52] | [54] | [56] | [57]
> 100 µM: all other assays above
